{"source": "paper PMC12208494", "about": "“The zinc metalloprotein MigC impacts cell wall biogenesis through interactions with an essential Mur ligase in Acinetobacter baumannii” (PLOS Pathogens, 2025)", "molecular_target": "T1, MurC (Acinetobacter baumannii, UniProt A3M9Y0)", "T1 construct": "full length, N-terminal 6xHis tag removed by TEV protease, E. coli BL21(DE3)", "T1 sequence (A3M9Y0 whole entry)": "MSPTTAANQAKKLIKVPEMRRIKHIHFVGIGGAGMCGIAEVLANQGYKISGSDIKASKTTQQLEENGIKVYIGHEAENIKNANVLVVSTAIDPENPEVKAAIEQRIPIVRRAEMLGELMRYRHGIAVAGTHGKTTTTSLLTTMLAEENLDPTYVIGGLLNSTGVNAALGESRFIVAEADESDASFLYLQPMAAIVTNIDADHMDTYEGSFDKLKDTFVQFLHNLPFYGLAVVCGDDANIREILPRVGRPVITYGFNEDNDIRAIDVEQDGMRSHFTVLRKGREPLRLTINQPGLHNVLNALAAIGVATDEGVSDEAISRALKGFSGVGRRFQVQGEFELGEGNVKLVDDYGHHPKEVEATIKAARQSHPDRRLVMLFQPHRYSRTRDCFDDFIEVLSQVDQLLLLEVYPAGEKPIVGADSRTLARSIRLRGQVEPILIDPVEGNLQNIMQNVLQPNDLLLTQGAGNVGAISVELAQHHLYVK", "experiment": "HPLC of UMA formation", "format": "biochemical", "details": "200 µM UDP-MurNAc, 1 mM L-alanine, 1 mM ATP, 2 mM MgCl2, pH 7.4, 37 °C"}
{"smiles": "CC(=O)N[C@H]1[C@@H](OP(=O)(O)OP(=O)(O)OC[C@H]2O[C@@H](n3ccc(=O)[nH]c3=O)[C@H](O)[C@@H]2O)O[C@H](CO)[C@@H](O)[C@@H]1O[C@H](C)C(=O)O", "note": "[UDP-MurNAc]", "values": [{"measurement": "HPLC of UMA formation", "result": "MurC and MurD activity were quantified by measuring MurC product, UMA"}]}
